Experimental data as given in patent US20140234317A1, “METHODS FOR PREVENTING TOXIC DRUG-DRUG INTERACTIONS IN COMBINATION THERAPIES COMPRISING ANTI-ERBB3 AGENTS” (Merrimack Pharmaceuticals, Inc., priority 2011, published 2014).

Legend:
[1] = Average plasma concentration of erlotinib co-administered with MM-121; type: in vivo, human; conditions: for Erlotinib Avg Conc.: plasma
Description: The ability of the anti-ErbB3 agent to alter the pharmacokinetics of a co-administered AAGB or TKI can be evaluated by measuring serum drug levels and calculating pharmacokinetic parameters. Pharmacokinetic parameters referred to herein (e.g., Example 1) describe the in vivo characteristics of a drug over time. These include plasma concentration (C), as well as Cmax, Tmax, and AUC. The term “Cmax” refers to the measured plasma concentration of the active agent at the point of maximum, or peak, concentration following an administration. The term “Tmax” refers to the time from drug administration until Cmax is reached. The term “AUC” refers to the area under the curve of a graph of the measured plasma concentration of an active agent vs. time, measured from one time point to another time point. For example AUC0-t is the area under the curve of plasma concentration versus time from time 0 to time t, where time 0 is the time of initial administration of the drug. Time t can be the last time point with measurable plasma concentration for an individual drug.
Patients also received one of two different doses of erlotinib (either 100 mg or 150 mg) administered daily orally. The antibody administration began on Day 1 and continued with weekly doses and the erlotinib administration began on Day 2 and continued with daily doses. Pharmacokinetic parameters were monitored for the duration of treatment, until the patient's cancer progressed or the patient came off the study.
For the erlotinib, the average plasma concentration was measured.

plasma protein = conditions: TKIs in clinical use; cited from earlier work
[2] = test system: alpha 1-acid glycoprotein (AAG); conditions: reported; cited from earlier work

SMILES | plasma protein binding (plasma protein) | binding to AAG that can alter bioavailability [2] | further results
C#Cc1cccc(Nc2ncnc3cc(OCCOC)c(OCCOC)cc23)c1 [Erlotinib, erlotinib] | high | significant binding | higher average plasma concentration of erlotinib ([1]; Patient 5 (12 mg/kg MM-121) vs Patient 2 (6 mg/kg MM-121), each 150 mg erlotinib): approximately 2.19 fold; higher average plasma concentration of erlotinib ([1]; Patient 8 (12 mg/kg MM-121) vs Patient 1 (6 mg/kg MM-121), each 100 mg erlotinib): approximately 2.02 fold; Erlotinib Avg Conc. ([1]; Subject 1, erlotinib 100 mg daily oral + MM-121 6 mg/kg weekly i.v.): 384 ng/mL; Erlotinib Avg Conc. ([1]; Subject 2, erlotinib 150 mg daily oral + MM-121 6 mg/kg weekly i.v.): 624 ng/mL; Erlotinib Avg Conc. ([1]; Subject 3, erlotinib 150 mg daily oral + MM-121 6 mg/kg weekly i.v.): 569 ng/mL; Erlotinib Avg Conc. ([1]; Subject 4, erlotinib 150 mg daily oral + MM-121 6 mg/kg weekly i.v.): 656 ng/mL; Erlotinib Avg Conc. ([1]; Subject 5, erlotinib 150 mg daily oral + MM-121 12 mg/kg weekly i.v.): 1370 ng/mL; Erlotinib Avg Conc. ([1]; Subject 6, erlotinib 150 mg daily oral + MM-121 12 mg/kg weekly i.v.): 1165.3 ng/mL; Erlotinib Avg Conc. ([1]; Subject 7, erlotinib 100 mg daily oral + MM-121 12 mg/kg weekly i.v.): 2395.6 ng/mL; Erlotinib Avg Conc. ([1]; Subject 8, erlotinib 100 mg daily oral + MM-121 12 mg/kg weekly i.v.): 777.5894 ng/mL; higher average plasma concentration of erlotinib ([1]; patients treated with 12 mg/kg anti-ErbB3 antibody compared to patients treated with 6 mg/kg): 2-3 fold
CN(C)C/C=C/C(=O)Nc1cc2c(Nc3ccc(F)c(Cl)c3)ncnc2cc1O[C@H]1CCOC1 [afatinib] | high | – | –
Cc1nc(Nc2ncc(C(=O)Nc3c(C)cccc3Cl)s2)cc(N2CCN(CCO)CC2)n1 [dasatinib] | high | – | –
COc1cc2ncnc(Nc3ccc(F)c(Cl)c3)c2cc1OCCCN1CCOCC1 [gefitinib] | high | significant binding | –
Cc1ccc(NC(=O)c2ccc(CN3CCN(C)CC3)cc2)cc1Nc1nccc(-c2cccnc2)n1 [imatinib] | – | significant binding | –
CS(=O)(=O)CCNCc1ccc(-c2ccc3ncnc(Nc4ccc(OCc5cccc(F)c5)c(Cl)c4)c3c2)o1 [lapatinib] | high | significant binding | –
Cc1cn(-c2cc(NC(=O)c3ccc(C)c(Nc4nccc(-c5cccnc5)n4)c3)cc(C(F)(F)F)c2)cn1 [nilotinib] | high | – | –
Cc1ccc(Nc2nccc(N(C)c3ccc4c(C)n(C)nc4c3)n2)cc1S(N)(=O)=O [pazopinib] | high | – | –
CNC(=O)c1cc(Oc2ccc(NC(=O)Nc3ccc(Cl)c(C(F)(F)F)c3)cc2)ccn1 [sorafenib] | high | – | –
CCN(CC)CCNC(=O)c1c(C)[nH]c(/C=C2\C(=O)Nc3ccc(F)cc32)c1C [sunitinib] | high | – | –
